Data set [1] has as its system BCRP. Put plainly: BCRP MDCKII efflux assay (Assay 7). The data set is classed as in vitro ADME. The following applies: dog; efflux ratio Papp(B-A)/Papp(A-B), BCRP MDCKII cells; read-out: Assay 7 Pe Ratio. The procedure: (§1) Assay conditions included with and without the BCRP-specific inhibitor, KO143, at a concentration of 0.3 μM to ascertain the contribution of BCRP to the efflux value of the test compound.
(§2) Final organic concentration in the assay was 1%.

Data set [2] addresses MDR1 (P-gp) (Homo sapiens (Human), UniProt P08183). Put plainly: in vitro. Conditions: pig, LLC-PK1.
Data set [3] addresses EGFR (Homo sapiens (Human), UniProt P00533). Put plainly: ErbB Enzyme Assay (HTRF KinEASE-TK), Assay 3. The data set is classed as biochemical. On the technique in general: In TR-FRET formats the signal depends on donor and acceptor labels being close together.
The target of data set [4] is EGFR wild type (EGFR WT) (Homo sapiens (Human), UniProt P00533). Put plainly: Cellular Phosphorylation Assay, Assay 5 (EGF-stimulated EGFR phosphorylation, NIH 3T3 cells). The data set is classed as cell-based.
Sequence of EGFR wild type (EGFR WT) (P00533 25-1210): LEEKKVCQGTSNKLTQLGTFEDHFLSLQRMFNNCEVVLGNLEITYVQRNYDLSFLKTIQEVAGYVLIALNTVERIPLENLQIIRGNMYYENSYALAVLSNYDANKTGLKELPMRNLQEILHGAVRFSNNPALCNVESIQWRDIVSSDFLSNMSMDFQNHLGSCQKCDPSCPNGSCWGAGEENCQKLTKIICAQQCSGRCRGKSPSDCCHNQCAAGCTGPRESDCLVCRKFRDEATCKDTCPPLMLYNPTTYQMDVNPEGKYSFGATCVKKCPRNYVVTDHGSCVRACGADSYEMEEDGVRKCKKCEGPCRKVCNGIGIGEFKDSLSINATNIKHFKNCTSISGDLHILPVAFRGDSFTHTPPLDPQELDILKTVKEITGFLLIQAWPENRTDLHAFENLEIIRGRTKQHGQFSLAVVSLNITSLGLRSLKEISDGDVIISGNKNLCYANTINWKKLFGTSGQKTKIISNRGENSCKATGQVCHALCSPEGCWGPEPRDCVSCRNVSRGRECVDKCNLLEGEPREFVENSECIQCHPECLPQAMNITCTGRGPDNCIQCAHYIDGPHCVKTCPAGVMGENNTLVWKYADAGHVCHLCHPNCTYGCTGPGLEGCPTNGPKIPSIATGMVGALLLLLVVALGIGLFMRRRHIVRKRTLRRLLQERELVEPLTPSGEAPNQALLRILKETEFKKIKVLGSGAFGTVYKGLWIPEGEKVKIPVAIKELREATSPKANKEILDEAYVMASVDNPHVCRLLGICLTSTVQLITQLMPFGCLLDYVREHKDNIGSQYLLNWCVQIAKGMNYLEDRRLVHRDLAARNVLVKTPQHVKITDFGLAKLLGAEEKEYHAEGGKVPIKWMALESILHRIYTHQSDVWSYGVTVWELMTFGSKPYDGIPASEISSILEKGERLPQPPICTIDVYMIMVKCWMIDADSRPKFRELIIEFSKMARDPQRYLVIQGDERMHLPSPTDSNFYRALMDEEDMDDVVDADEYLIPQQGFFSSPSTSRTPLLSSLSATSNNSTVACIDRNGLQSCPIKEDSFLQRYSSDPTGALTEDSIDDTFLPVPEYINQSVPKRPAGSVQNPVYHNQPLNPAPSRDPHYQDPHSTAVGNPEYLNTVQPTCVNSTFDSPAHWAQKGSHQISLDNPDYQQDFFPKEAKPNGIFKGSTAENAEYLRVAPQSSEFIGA
Data set [5] deals with ErbB2 with Exon 20 YVMA insertion (HER2-YVMA) (Homo sapiens (Human), UniProt P04626, INS775YVMA). Put plainly: Cellular Phosphorylation Assay, Assay 4 (constitutive ErbB2 phosphorylation, NIH 3T3 cells). The data set is classed as cell-based.
In data set [6] the target is ErbB2 WT (Homo sapiens (Human), UniProt P04626). As to the kind of experiment: ErbB Enzyme Assay (HTRF KinEASE-TK), Assay 2. The data set is classed as biochemical.
Data set [7] concerns the target BCRP transfected MDCKII cells (Homo sapiens (Human), UniProt Q9UNQ0). Put plainly: BCRP MDCKII efflux assay (Assay 7). The data set is classed as in vitro ADME. Conditions: efflux ratio Papp(B-A)/Papp(A-B). The procedure: as §1, §2
Data set [8] deals with MDR1 (P-gp) transfected LLC-PK1 cells (Homo sapiens (Human), UniProt P08183).
The target of data set [9] is BCRP (Homo sapiens (Human), UniProt Q9UNQ0). Put plainly: BCRP MDCKII efflux assay (Assay 7). Conditions: dog; efflux ratio Papp(B-A)/Papp(A-B), BCRP MDCKII cells; read-out: Assay 7 Pe Ratio. The data set is classed as in vitro ADME. On the procedure:
as §1, §2

Where [10] appears, read: EGF-stimulated EGFR WT phosphorylation.
The mark [11] stands for this setting: cellular EGFR WT phosphorylation, EGF-stimulated.
Setting [12] is: cellular ErbB2 YVMA phosphorylation.

Sequence of MDR1 (P-gp) (P08183 whole entry): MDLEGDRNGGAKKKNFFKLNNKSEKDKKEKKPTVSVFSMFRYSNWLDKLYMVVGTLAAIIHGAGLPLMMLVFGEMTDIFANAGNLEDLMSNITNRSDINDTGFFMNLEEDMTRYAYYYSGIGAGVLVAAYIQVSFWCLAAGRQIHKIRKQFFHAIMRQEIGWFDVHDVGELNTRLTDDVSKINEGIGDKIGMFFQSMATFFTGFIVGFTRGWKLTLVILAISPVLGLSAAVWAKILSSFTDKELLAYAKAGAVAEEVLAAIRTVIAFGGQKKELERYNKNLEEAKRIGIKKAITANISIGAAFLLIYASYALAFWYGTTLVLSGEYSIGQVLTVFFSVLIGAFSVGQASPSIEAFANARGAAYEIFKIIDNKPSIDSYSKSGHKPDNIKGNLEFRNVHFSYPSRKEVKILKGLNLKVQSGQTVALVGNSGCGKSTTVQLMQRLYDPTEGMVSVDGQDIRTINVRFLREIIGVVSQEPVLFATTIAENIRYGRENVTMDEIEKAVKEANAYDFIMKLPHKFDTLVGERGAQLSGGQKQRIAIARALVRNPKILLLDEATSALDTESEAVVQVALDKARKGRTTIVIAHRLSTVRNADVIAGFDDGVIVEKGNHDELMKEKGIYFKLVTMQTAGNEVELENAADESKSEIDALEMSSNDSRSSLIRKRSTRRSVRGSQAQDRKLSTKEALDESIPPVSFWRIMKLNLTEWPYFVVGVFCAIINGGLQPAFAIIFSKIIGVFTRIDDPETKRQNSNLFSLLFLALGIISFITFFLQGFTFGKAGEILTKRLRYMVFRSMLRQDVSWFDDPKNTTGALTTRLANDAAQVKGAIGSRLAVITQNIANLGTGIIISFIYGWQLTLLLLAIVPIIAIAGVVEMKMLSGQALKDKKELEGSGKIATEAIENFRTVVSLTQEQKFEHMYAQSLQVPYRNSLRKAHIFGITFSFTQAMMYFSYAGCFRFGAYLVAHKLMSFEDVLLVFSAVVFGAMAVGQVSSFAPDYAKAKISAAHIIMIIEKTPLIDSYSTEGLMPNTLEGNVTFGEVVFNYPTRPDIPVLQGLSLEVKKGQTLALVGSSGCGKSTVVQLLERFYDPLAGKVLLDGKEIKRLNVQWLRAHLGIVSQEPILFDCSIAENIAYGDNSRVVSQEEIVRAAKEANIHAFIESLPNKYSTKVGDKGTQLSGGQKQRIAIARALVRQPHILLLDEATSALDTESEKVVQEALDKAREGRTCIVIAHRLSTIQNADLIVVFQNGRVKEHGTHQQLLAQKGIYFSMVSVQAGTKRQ
Sequence of EGFR (P00533 25-1210): as the sequence (P00533 25-1210) above
Sequence of BCRP (Homo sapiens (Human), UniProt Q9UNQ0) (Q9UNQ0 whole entry): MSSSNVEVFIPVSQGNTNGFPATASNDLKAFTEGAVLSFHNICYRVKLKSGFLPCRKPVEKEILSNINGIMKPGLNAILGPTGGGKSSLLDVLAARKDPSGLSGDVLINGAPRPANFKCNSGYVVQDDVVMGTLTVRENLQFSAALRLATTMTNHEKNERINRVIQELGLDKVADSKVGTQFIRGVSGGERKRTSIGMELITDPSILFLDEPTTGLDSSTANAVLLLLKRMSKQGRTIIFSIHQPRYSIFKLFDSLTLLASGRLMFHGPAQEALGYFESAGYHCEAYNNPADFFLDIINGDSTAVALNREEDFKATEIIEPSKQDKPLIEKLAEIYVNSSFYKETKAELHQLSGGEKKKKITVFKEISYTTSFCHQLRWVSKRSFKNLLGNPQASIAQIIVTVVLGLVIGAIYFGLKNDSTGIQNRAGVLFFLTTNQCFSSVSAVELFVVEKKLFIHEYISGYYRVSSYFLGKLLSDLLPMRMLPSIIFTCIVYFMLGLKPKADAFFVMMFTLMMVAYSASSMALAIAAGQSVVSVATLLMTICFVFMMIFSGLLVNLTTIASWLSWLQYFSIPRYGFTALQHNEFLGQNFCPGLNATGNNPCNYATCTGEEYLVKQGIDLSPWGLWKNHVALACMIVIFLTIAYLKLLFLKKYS
Sequence of BCRP transfected MDCKII cells (Q9UNQ0 whole entry): as above

In the case of `C=CC(=O)N1CCC[C@@H](c2ccc3ncnc(Nc4ccc(Oc5ccc6c(c5)ncn6C)c(C)c4F)c3n2)C1` (racemic) [Example 144, rac-(R)-1-(3-(4-((2-fluoro-3-methyl-4-((1-methyl-1H-benzo[d]imidazol-5-yl)oxy)phenyl)amino)pyrido[3,2-d]pyrimidin-6-yl)piperidin-1-yl)prop-2-en-1-one], the efflux ratio at 2 h, 1 µM in [1] was 0.6; in data set [2], 1.2. The IC50 (as a rule, the concentration that inhibits the measured activity by half) in data set [3] (EGFR enzyme) is 650 nM; in data set [4] (setting [10]), 1070 nM; in data set [5] (ErbB2 YVMA phosphorylation), 11.7 nM; in data set [6] (ErbB2 WT enzyme), 25 nM.

In the case of `C=CC(=O)N1C[C@@H]2C[C@H]1C[C@H]2c1ccc2ncnc(Nc3ccc(Oc4ccc5c(c4)ncn5C)c(C)c3F)c2n1` (racemic) [Example 203, rac-1-((1S,4R,5R)-5-(4-((2-fluoro-3-methyl-4-((1-methyl-1H-benzo[d]imidazol-5-yl)oxy)phenyl)amino)pyrido[3,2-d]pyrimidin-6-yl)-2-azabicyclo[2.2.1]heptan-2-yl)prop-2-en-1-one], the figures for the efflux ratio at 2 h, 1 µM in data set [1] and in data set [2] were 0.6 and 1.1, respectively. Besides, the IC50 in [3] (EGFR enzyme) was found to be 401 nM; in data set [4] (setting [10]), 1450 nM; in data set [5] (ErbB2 YVMA phosphorylation), 16.7 nM; in [6] (ErbB2 WT enzyme), 13.3 nM.

With `C=CC(=O)N1[C@@H]2CC[C@H]1C[C@@H](c1ccc3ncnc(Nc4ccc(Oc5cnc6c(c5)ncn6C)c(C)c4F)c3n1)C2` [Example 227, 1-((1R,3r,5S)-3-(4-((2-fluoro-3-methyl-4-((3-methyl-3H-imidazo[4,5-b]pyridin-6-yl)oxy)phenyl)amino)pyrido[3,2-d]pyrimidin-6-yl)-8-azabicyclo[3.2.1]octan-8-yl)prop-2-en-1-one], the “Assay 7 Pe Ratio” value in data set [7] stood at 5.5. In addition, the IC50 in data set [3] (EGFR enzyme) worked out at 3790 nM; in data set [4] (setting [10]), 5000 nM; in [5] (ErbB2 YVMA phosphorylation), 26.8 nM; in data set [6] (ErbB2 WT enzyme), 138 nM. Also, the efflux ratio in [8] is 1.2.

As for `C=CC(=O)N1[C@@H]2CC[C@H]1[C@H](c1ccc3ncnc(Nc4ccc(Oc5cnc6c(c5)ncn6C)c(C)c4F)c3n1)C2` [Example 419], the efflux ratio at 2 h, 1 µM was 2.2 in data set [9] and 0.8 in data set [2]. In addition, the half-inhibitory concentration (IC50) in [3] (EGFR enzyme assay) is 1040 nM; in data set [4] (setting [11]), at least 5000 nM; in [5] (setting [12]), 21.5 nM; in data set [6] (ErbB2 WT enzyme assay), 42.3 nM.

Take `C=CC(=O)N1C[C@H]2CC[C@@H]1[C@H](c1ccc3ncnc(Nc4ccc(Oc5cnc6c(c5)ncn6C)c(C)c4F)c3n1)C2` [Example 426]: the efflux ratio at 2 h, 1 µM in data set [9] came to 2; in data set [2] it was 0.7. Further, the IC50 in data set [3] (EGFR enzyme assay) was at least 10000 nM; in data set [4] (setting [11]), at least 5000 nM; in [5] (setting [12]) it was 33.2 nM; in data set [6] (ErbB2 WT enzyme assay), 183 nM.

In the case of `C=CC(=O)N1CCN(c2ccc3ncnc(Nc4ccc(Oc5cnc6c(c5)ncn6C)c(C)c4F)c3n2)C[C@H]1C` [Example 433], the efflux ratio at 2 h, 1 µM in [9] was 3.8; in data set [2] it was 1.1. For the same compound, the IC50 in [3] (EGFR enzyme assay) came to 4830 nM; in [4] (setting [11]) it was 2890 nM; in [5] (setting [12]), 9.4 nM; in [6] (ErbB2 WT enzyme assay) it was 101 nM.

For the compound `C=CC(=O)N1CC2CC(C1)N2c1ccc2ncnc(Nc3ccc(Oc4cnc5c(c4)ncn5C)c(C)c3F)c2n1` [Example 435], the values for the efflux ratio at 2 h, 1 µM in data set [9] and in [2] were 2 and 1.5, respectively. Besides, the half-inhibitory concentration (IC50) in [3] (EGFR enzyme assay) is 587 nM; in [4] (setting [11]), 1140 nM; in data set [5] (setting [12]), 16 nM; in [6] (ErbB2 WT enzyme assay), 314 nM.

With `C=CC(=O)N1[C@H](C)CN(c2ccc3ncnc(Nc4ccc(Oc5cnc6c(c5)ncn6C)c(C)c4F)c3n2)C[C@@H]1C` [Example 442], the efflux ratio at 2 h, 1 µM was 1.9 in data set [9] and 1 in data set [2]. The IC50 was at least 10000 nM in data set [3] (EGFR enzyme assay), at least 5000 nM in data set [4] (setting [11]), 29.7 nM in [5] (setting [12]) and 464 nM in [6] (ErbB2 WT enzyme assay).

As for `C=CC(=O)N1CC2CCC(C1)N2c1ccc2ncnc(Nc3cc(C)c(Oc4ccn5ncnc5c4)cc3F)c2n1` [Example 454], the values for the efflux ratio at 2 h, 1 µM in data set [1] and in data set [2] were 0.6 and 0.8, respectively. Further, the half-inhibitory concentration (IC50) in [3] (EGFR enzyme assay) was found to be 1180 nM; in data set [4] (setting [11]), 680 nM; in data set [5] (setting [12]) it was 14.1 nM; in data set [6] (ErbB2 WT enzyme assay), 35.6 nM.

(Values after US12447153B2, “HER2 mutation inhibitors” (Array BioPharma Inc., priority 2021, dated 2025).)
